Data set [1] relates to mouse primary astrocytes. In words: Transporter-mediated cellular uptake into primary astrocytes. The note with it: for Vmax of cellular uptake (maximum transport capacity): 1–200 μM, 30 min. The class given is in vitro ADME. The method, then: (§1) For the cell uptake experiments, the astrocytes were seeded on 24-well plates with a density of 10 × 10^4 cells/well 3 days before the experiments. […]; Agilent Technologies, Santa Clara, CA). […] The concentrations of each compound in cell lysates were calculated from the standard curve that was prepared by spiking known amounts of compounds to ACN including the selected internal standard and normalized with protein concentration. The protein concentrations on each plate were determined as a mean of three samples by Bio-Rad Protein Assay, based on the Bradford dye-binding method, using bovine serum albumin (BSA) as a standard protein and measuring the absorbance (595 nm) by a multiplate reader (EnVision, Perkin Elmer, Inc., Waltham, MA, USA).

Assay in data set [2]: as above
The class given is in vitro ADME. The note with it: C57BL/6JOlaHsd, mouse. Here is the method:
as §1

For the next data set, the system named is caspase-3/-7. In words: Caspase-3/-7 in brain of LPS-induced neuroinflammation mice. Format: in vivo, mouse. The settings on record: for Brain caspase-3/-7 amounts, preventative treatment: 30 μmol/kg for 4 days together with LPS 250 μg/kg for 3 days; for Brain caspase-3/-7 amounts, preventative treatment / Brain caspase-3/-7 amounts, curative treatment: relative to control; for Brain caspase-3/-7 amounts, curative treatment: 30 μmol/kg on days 3 and 4, LPS 250 μg/kg for 3 days. Here is the method:
Adult male C57BL/6JOlaHsd mice (Jackson Laboratories, Bar Harbor, ME, USA) were supplied by Envigo (Venray, Netherlands). Mice were housed in stainless steel cages on a 12-h light (07:00–19:00) and 12-h dark (19:00–07:00) cycle at an ambient temperature of 22 ± 1 °C with a relative humidity of 50–60%. All experiments were carried out during the light phase. Tap water and food pellets (Lactamin R36; Lactamin AB, Södertälje, Sweden) were available ad libitum. Neuroinflammation was induced by the treatment with LPS 250 μg/kg i.p once per day for 3 consequent days followed by decapitation on the 4th day. The animals were allocated to one of four treatment groups (n = 6 per group): (1) LPS-treated mice, (2) mice treated with LPS and the studied compound (30 μmol/kg; i.v.) for 3 days and 120 min before the decapitation on the 4th day (preventative efficacy), (3) mice treated with LPS for 3 days and with the studied compound (30 μmol/kg; i.v.) only for the last 2 days, and (4) control mice treated with 0.9% NaCl solution i.p. once per day for 3 days. After decapitation, mouse blood and brain samples were collected. […] The plasma layer was centrifuged again at 12,000 × g to remove the platelets. Plasma was stored at − 80 °C until analysis. The brains were snap-frozen in liquid nitrogen and stored at − 80 °C until analysis.
The effects of the compounds on the enzyme activity of caspase-3 and caspase-7 were evaluated from the snap-frozen mouse brain. Pieces of tissues (n = 3) were homogenized in 50 mM Tris–HCl (pH 7.4) 1:10 (w/v) with a bead mill homogenizer. […] The enzyme activity was measured with an Apo-ONE Homogenous Caspase-3/7 Assay kit (Promega Corporation, Madison, WI, USA) according to the manufacturer’s instruction. The assay was performed on 96-well plates, each sample having 3 replicates. Each of the sample wells contained 100 μL of the previously collected supernatant and 100 μL of the prepared Apo-ONE reagent. The blank measurement was carried out with the homogenization buffer and Apo-ONE reagent. Once all the samples and reagents were pipetted in the wells, the plate was carefully shaken for 30 s and left for incubation in dark at room temperature. The fluorescence was measured after the incubation with an EnVision 2104 Multilabel Reader (PerkinElmer, Waltham, MA, USA), with λex 499 nm and λem 521 nm. The measurement was repeated on multiple time points between 0.5 and 24 h.

Data set [3] has as its system MCF-7 human breast adenocarcinoma cells. In words: Cell viability of MCF-7 cells with cisplatin co-treatment (resazurin). The class given is cell-based. The settings on record: 10–400 μM together with 100 μM cisplatin, 72 h.
Data set [4] relates to mouse primary astrocytes. In words: Intracellular unbound concentrations in astrocytes (RED dialysis, Kp,uu,cell). The note with it: below 500 nM concentrations. Format: in vitro ADME. The method, then: The non-specific binding of compounds (100 μM) was determined in astrocyte homogenate by using the Rapid Equilibrium Dialysis (RED) device (Thermo Fisher Scientific, Inc., Waltham, MA, USA). Briefly, the astrocyte cell suspension (10 × 10^6 cells/mL) was homogenized with HBSS by the SoniPerp 150 Plus disintegrator (MSE Ltd., London, UK) (2 s × 3). The studied compound was mixed with 100 μL of cell homogenate and added to the reaction chamber. A 350-μL HBSS buffer was added to the buffer chamber. The dialysis plate was incubated at 37 °C for 4 h with shaking. Fifty microliters of samples were taken from the reaction and buffer chambers and equal size of the buffer or blank homogenate were added, respectively, to yield identical matrices. The proteins were precipitated by adding 100 μL of ice-cold ACN (including the selected internal standard; see above), and the supernatants were collected for LC-MS analysis (see above) after centrifugation at 12,000 × g for 10 min. The unbound drug fraction (fu,cell) was calculated by dividing concentration in the buffer chamber by concentration in the reaction chamber and taking into account the effect of homogenate dilution factor (D = 45 for 10 × 10^6 cells/mL cell suspension according to their weight of the cells) as described earlier.
The compound concentration ratios in astrocytes (Kp) was determined at 0.01–1.0 μM concentrations by comparing the cellular uptake amount (nmol) in cell lysates (0.1 M NaOH) per astrocyte cell volume (0.05810^−15 L/cell for 10 × 10^4 cells/well) to the concentrations (nM) detected from the surrounding buffer (HBSS) collected before cell lysing as described previously. The unbound drug concentration ratio (Kp,uu) was then calculated by multiplying the drug concentration ratio (Kp) by unbound drug fraction (fu,cell).

For the next data set, the system named is primary astrocytes. In words: Ability to affect cell growth of primary astrocytes (resazurin). The class given is cell-based. The settings on record: 72 h. (The colour change of resazurin is a common sign of viable cells or microbes.)
Another data set has as its system LAT1. Further details: method as in PMID 31610281. The note with it: human breast adenocarcinoma cells (MCF-7); read-out: IC50 of [14C]-L-leucine uptake (LAT1 binding) in MCF-7 cells; cited from earlier work.
Details of data set [5]: method as in PMID 31492955. The note with it: neurons, astrocytes, and microglia homogenates; cited from earlier work.
Details of data set [6]: method as in PMID 27266990. The note with it: during 5 h incubation; cited from earlier work.
For data set [7], the system named is mouse primary astrocytes. Also on record: method as in PMID 31492955. The note with it: in the presence of a specific LAT1 inhibitor; cited from earlier work.
Where [8] appears, read: 1–200 μM, 30 min, read-out: Km of cellular uptake.

Broadly, the Km is the substrate concentration at which the rate is half of its maximum. A word on the IC50: it is the point on the concentration scale where inhibition reaches its midpoint.

SMILES strings stand for the structures. “Also recorded” adds a separate entry of the source. Where two headings read alike, the source gives them in different places.

Consider `O=C1OCc2cc(-c3ccc(-c4ccc(CO)cc4)s3)ccc21` [PFI], for which the “Vmax of cellular uptake (maximum transport capacity)” value in the data set with mouse primary astrocytes [1] amounted to 1.4 ± 0.4 nmol/min/mg protein. The “Vmax of cellular uptake, Eadie-Hofstee, first transport mechanism” value in the data set with mouse primary astrocytes [1] (mechanism with Km 8.3 μM) is recorded as 0.036 ± 0.007 nmol/min/mg protein. Further, in the data set with mouse primary astrocytes [1] (mechanism with Km 680 μM), the “Vmax of cellular uptake, Eadie-Hofstee, second transport mechanism” value is 2.53 ± 0.17 nmol/min/mg protein. The Michaelis-Menten constant (Km) at 30 min in data set [2] (setting [8]) was 98 µM; in data set [2] (read-out: Km of cellular uptake, Eadie-Hofstee, first transport mechanism), 8.3 µM; in data set [2] (read-out: Km of cellular uptake, Eadie-Hofstee, second transport mechanism) it was 680 µM. The “Brain caspase-3/-7 amounts, preventative treatment” value with caspase-3/-7 turned out to be 156%. In addition, in the data set on caspase-3/-7, the “Brain caspase-3/-7 amounts, curative treatment” value was found to be 105%. The “Reversal of cisplatin-induced effects on MCF-7 cell viability” value in [3] is reported as “not able to revert the cisplatin-induced effects”. Further, in the data set with mouse primary astrocytes [4], the “Detection in astrocyte cell lysates” value is listed as “not detected”. Further, the “Inhibition of astrocyte cell growth” value in the data set on primary astrocytes (concentrations over 100 μM, vs untreated control) was 38–68%.

Regarding `N[C@H](Cc1cccc(C(=O)OCc2ccc(-c3ccc(-c4ccc5c(c4)COC5=O)s3)cc2)c1)C(=O)O` [PFI-PD], the “Vmax of cellular uptake (maximum transport capacity)” value with mouse primary astrocytes [1] came out at 54 ± 7 nmol/min/mg protein. In addition, the Km at 30 min in [2] (setting [8]) stood at 720 µM. For the same molecule, the concentration for half-maximal inhibition (IC50) in the data set with LAT1 is 1540 nM. Further, in the data set on caspase-3/-7, the “Brain caspase-3/-7 amounts, preventative treatment” value worked out at 68% and the “Brain caspase-3/-7 amounts, curative treatment” value is given as 63%. Further, the “Brain caspase-3/-7 levels after prodrug treatment” value with caspase-3/-7 (LPS-induced mice, LPS level given as 117%) is listed as 72–74%. In the data set with caspase-3/-7 (as stated in the discussion (from 117 to 72–74%)), the “Reduction of brain caspase-3/-7 levels” value was “over 40%”. Further, the “Reversal of cisplatin-induced effects on MCF-7 cell viability” value in data set [3] is listed as “able to revert the cisplatin-induced effects”. The “Half-lives in brain cell homogenates” value in [5] is 4 to 6 h. The “Prodrug bioconverted in mouse brain S9 subcellular fraction” value in data set [6] is recorded as “approximately 50%”. The “Inhibition of cellular uptake into primary astrocytes by a specific LAT1 inhibitor” value in the data set on mouse primary astrocytes [7] was “over 70%”. In addition, the “Increase of astrocyte cell growth” value with primary astrocytes (5–100 μM, vs control cells) is reported as 35–87%. The “Effect on astrocyte cell growth / viability” value in the data set on primary astrocytes (5–400 μM) was “did not exert any inhibitory effects; also recorded: did not affect the cell viability”.

(Values after PMC7515946, “Targeting of Perforin Inhibitor into the Brain Parenchyma Via a Prodrug Approach Can Decrease Oxidative Stress and Neuroinflammation and Improve Cell Survival” (Molecular Neurobiology, 2020).)
